Reference: ChEMBL document CHEMBL5150077, “Identification of TUL01101: A Novel Potent and Selective JAK1 Inhibitor for the Treatment of Rheumatoid Arthritis” (J Med Chem, 2022)

Experiments:
Mus musculus [1] = test: Antiarthritic activity in collagen-induced rheumatoid arthritis DBA/1 mouse model assessed as reduction in incidence rate at 15 mg/kg, po BID administered for 14 days starting from 7 days before immunization to 21 days after immunization and measured on day 34 post immunization; format: functional; set-up: scale not given: the % may be the effect or the level left; details: time 14 day
[2] = Elimination half life in Sprague-Dawley rat at 10 mg/kg, po measured for 24 hrs by LC-MS/MS analysis; format: ADME, organism-based; details: in vivo, read-out: beta t1/2 (converted)
[3] = target: Serine/threonine-protein kinase MAK (Homo sapiens) (UniProt P20794); test: Inhibition of human MAK assessed as residual activity at 30 uM relative to control
[4] = target: Platelet-derived growth factor receptor beta (Homo sapiens) (UniProt P09619); test: Inhibition of human PDGFRbeta assessed as residual activity at 30 uM relative to control
in vivo = details: beagle, dog, po, 5 mg/kg
[5] = Toxicity in rat assessed as reduction in food intake at 10 mg/kg/day, po administered via gavage once a day pretreated for 9 weeks prior to co-cage and measured on day 74; format: organism-based; set-up: scale not given: the % may be the effect or the level left; details: in vivo, 1776 h, time 74 day
Rattus norvegicus [6] = test: Antiarthritic activity in adjuvant-induced arthritis rat model assessed as clinical score at 3 mg/kg, po administered twice a day for 14 days starting from day 13 to 27 post immunization and measured every 3 days a week; format: functional; details: time 14 day
[7] = target: Insulin-like growth factor 1 receptor (Homo sapiens) (UniProt P08069); test: Inhibition of human IGF1R assessed as residual activity at 30 uM relative to control
[8] = target: Serine/threonine-protein kinase B-raf (Homo sapiens) (UniProt P15056); test: Inhibition of human B-raf assessed as residual activity at 30 uM relative to control
[9] = AUC in Sprague-Dawley rat at 10 mg/kg, po measured for 24 hrs by LC-MS/MS analysis; format: ADME, organism-based; set-up: time 24 hrs, dose 10 mg/kg, route po; details: in vivo
[10] = Volume of distribution at steady state in Sprague-Dawley rat at 1 mg/kg, iv measured for 24 hrs by LC-MS/MS analysis; format: ADME, organism-based; details: in vivo, read-out: Vdss
[11] = target: RAC-alpha serine/threonine-protein kinase (Homo sapiens) (UniProt P31749); test: Inhibition of human PKBalpha assessed as residual activity at 30 uM relative to control
[12] = target: Cytoplasmic tyrosine-protein kinase BMX (Homo sapiens) (UniProt P51813); test: Inhibition of human BMX assessed as residual activity at 30 uM relative to control
[13] = Toxicity in rat assessed as reduction in body weight at 10 mg/kg/day, po administered via gavage once a day pretreated for 9 weeks prior to co-cage and measured on day 74 relative to control; format: organism-based; set-up: scale not given: the % may be the effect or the level left; details: in vivo, 1776 h, time 74 day
[14] = target: Hepatocyte growth factor receptor (Homo sapiens) (UniProt P08581); test: Inhibition of human MET assessed as residual activity at 30 uM relative to control
[15] = target: Inhibitor of nuclear factor kappa-B kinase subunit beta (Homo sapiens) (UniProt O14920); test: Inhibition of human IKKbeta assessed as residual activity at 30 uM relative to control
[16] = Volume of distribution at steady state in beagle dog at 0.2 mg/kg, iv measured for 24 hrs by LC-MS/MS analysis; format: ADME, organism-based, Canis lupus familiaris; details: in vivo, read-out: Vdss
[17] = target: CDK2/Cyclin A2 (Homo sapiens) (UniProt P24941+P20248); test: Inhibition of human CDK2/Cyclin A assessed as residual activity at 30 uM relative to control; format: protein-complex assay
[18] = target: Aurora kinase A (Homo sapiens) (UniProt O14965); test: Inhibition of human Aurora A assessed as residual activity at 30 uM relative to control
[19] = target: [Pyruvate dehydrogenase (acetyl-transferring)] kinase isozyme 1, mitochondrial (Homo sapiens) (UniProt Q15118); test: Inhibition of human PDK1 assessed as residual activity at 30 uM relative to control
[20] = target: Mitogen-activated protein kinase 1 (Homo sapiens) (UniProt P28482); test: Inhibition of human MAPK1 assessed as residual activity at 30 uM relative to control
Mus musculus [21] = test: Antiarthritic activity in collagen-induced rheumatoid arthritis DBA/1 mouse model assessed as reduction in clinical score at 15 mg/kg, po BID administered for 14 days starting from 7 days before immunization to 21 days after immunization and measured on day 41 post immunization (reference value: 5.75); format: functional; details: time 14 day
Rattus norvegicus [22] = test: Antiarthritic activity in adjuvant-induced arthritis rat model assessed as clinical score at 1 mg/kg, po administered twice a day for 14 days starting from day 13 to 27 post immunization and measured every 3 days a week; format: functional; details: time 14 day
[23] = target: Tyrosine-protein kinase ITK/TSK (Homo sapiens) (UniProt Q08881); test: Inhibition of human ITK assessed as residual activity at 30 uM relative to control
[24] = target: Serine/threonine-protein kinase 26 (Homo sapiens) (UniProt Q9P289); test: Inhibition of human MST4 assessed as residual activity at 30 uM relative to control
[25] = target: Misshapen-like kinase 1 (Homo sapiens) (UniProt Q8N4C8); test: Inhibition of human MINK assessed as residual activity at 30 uM relative to control
[26] = target: Calcium/calmodulin-dependent protein kinase type II subunit alpha (Homo sapiens) (UniProt Q9UQM7); test: Inhibition of human CAMKIIalpha assessed as residual activity at 30 uM relative to control
[27] = target: Casein kinase I (Homo sapiens) (UniProt Q9HCP0+P78368+P48730+P49674+P48729); test: Inhibition of CK1 (unknown origin) assessed as residual activity at 30 uM relative to control; format: protein assay

Chain of Platelet-derived growth factor receptor beta (Homo sapiens) (P09619 whole entry): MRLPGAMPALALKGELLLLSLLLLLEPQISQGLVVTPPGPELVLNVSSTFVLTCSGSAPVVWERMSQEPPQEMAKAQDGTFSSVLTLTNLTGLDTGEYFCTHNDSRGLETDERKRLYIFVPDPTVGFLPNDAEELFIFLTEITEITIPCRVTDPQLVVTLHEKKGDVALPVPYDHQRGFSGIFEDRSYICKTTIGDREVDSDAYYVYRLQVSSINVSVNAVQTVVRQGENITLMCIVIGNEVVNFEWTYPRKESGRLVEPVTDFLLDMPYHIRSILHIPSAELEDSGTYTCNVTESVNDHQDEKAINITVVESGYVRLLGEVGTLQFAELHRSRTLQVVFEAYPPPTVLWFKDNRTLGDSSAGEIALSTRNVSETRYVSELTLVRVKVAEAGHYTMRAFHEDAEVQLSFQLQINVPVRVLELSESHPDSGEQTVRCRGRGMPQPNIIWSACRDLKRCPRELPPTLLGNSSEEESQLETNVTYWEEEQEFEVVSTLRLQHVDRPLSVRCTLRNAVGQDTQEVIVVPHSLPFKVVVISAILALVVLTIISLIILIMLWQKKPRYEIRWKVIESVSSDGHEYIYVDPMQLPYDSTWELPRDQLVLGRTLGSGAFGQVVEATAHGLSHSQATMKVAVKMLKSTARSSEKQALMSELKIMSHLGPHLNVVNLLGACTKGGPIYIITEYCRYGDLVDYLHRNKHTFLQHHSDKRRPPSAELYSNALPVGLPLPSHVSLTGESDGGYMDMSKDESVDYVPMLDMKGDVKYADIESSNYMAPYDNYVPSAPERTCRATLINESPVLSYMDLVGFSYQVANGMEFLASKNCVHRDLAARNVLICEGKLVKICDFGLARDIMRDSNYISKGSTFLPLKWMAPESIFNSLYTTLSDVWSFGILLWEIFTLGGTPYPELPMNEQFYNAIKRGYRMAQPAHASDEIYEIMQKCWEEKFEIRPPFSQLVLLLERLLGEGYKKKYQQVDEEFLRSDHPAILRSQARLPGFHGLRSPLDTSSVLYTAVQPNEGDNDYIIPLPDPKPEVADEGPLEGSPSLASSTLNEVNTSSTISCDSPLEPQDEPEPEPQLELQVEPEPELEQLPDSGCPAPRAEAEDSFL
Chain of Mitogen-activated protein kinase 1 (Homo sapiens) (P28482 whole entry): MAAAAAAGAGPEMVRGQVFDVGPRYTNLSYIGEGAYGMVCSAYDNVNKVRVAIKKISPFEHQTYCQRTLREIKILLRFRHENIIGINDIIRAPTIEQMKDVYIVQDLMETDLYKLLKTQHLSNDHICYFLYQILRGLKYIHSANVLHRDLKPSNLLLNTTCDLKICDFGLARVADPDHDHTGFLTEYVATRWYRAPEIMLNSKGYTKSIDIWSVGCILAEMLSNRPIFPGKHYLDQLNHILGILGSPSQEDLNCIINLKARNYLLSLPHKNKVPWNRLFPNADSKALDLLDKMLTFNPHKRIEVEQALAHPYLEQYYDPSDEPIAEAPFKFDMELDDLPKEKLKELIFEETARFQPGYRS
Chain of Cytoplasmic tyrosine-protein kinase BMX (Homo sapiens) (P51813 whole entry): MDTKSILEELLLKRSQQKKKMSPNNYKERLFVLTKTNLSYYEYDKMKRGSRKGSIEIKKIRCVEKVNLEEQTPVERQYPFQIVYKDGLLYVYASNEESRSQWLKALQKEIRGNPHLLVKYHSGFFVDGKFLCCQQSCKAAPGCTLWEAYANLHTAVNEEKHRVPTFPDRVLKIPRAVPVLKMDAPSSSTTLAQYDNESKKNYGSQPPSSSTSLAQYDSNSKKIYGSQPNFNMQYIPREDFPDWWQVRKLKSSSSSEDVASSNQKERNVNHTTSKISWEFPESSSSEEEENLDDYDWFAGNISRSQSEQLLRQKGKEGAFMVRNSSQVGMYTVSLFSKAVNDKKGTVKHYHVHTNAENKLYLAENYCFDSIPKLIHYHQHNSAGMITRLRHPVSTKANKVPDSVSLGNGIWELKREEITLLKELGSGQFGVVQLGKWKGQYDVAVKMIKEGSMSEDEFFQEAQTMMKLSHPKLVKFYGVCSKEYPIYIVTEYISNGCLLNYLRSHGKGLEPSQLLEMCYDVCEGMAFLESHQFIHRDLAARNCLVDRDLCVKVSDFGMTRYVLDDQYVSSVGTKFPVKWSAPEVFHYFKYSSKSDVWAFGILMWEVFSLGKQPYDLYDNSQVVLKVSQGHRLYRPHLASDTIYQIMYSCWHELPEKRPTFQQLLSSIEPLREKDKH
Chain of Serine/threonine-protein kinase 26 (Homo sapiens) (Q9P289 2-416 limits assumed): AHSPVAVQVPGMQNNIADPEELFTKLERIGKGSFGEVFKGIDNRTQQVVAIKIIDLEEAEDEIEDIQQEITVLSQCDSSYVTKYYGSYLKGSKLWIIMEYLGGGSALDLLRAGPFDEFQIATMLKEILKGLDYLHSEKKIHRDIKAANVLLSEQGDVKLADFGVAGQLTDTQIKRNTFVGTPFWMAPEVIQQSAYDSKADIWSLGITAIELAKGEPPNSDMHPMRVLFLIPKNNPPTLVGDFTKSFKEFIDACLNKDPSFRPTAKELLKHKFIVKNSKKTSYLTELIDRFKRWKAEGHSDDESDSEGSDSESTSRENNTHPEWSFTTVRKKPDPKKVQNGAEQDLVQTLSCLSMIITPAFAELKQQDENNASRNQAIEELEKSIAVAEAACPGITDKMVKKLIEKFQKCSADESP
Chain of Aurora kinase A (Homo sapiens) (O14965 whole entry): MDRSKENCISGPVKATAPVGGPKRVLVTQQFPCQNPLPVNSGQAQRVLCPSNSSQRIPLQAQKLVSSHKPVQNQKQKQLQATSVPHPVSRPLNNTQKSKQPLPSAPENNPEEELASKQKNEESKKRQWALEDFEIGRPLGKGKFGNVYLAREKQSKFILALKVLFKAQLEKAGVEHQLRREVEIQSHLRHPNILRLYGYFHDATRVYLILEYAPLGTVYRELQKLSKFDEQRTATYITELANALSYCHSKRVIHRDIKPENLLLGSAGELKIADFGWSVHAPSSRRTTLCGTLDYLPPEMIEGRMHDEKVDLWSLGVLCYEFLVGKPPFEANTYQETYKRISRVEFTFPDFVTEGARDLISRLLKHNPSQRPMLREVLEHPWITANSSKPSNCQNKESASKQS
Chain of Serine/threonine-protein kinase B-raf (Homo sapiens) (P15056 whole entry): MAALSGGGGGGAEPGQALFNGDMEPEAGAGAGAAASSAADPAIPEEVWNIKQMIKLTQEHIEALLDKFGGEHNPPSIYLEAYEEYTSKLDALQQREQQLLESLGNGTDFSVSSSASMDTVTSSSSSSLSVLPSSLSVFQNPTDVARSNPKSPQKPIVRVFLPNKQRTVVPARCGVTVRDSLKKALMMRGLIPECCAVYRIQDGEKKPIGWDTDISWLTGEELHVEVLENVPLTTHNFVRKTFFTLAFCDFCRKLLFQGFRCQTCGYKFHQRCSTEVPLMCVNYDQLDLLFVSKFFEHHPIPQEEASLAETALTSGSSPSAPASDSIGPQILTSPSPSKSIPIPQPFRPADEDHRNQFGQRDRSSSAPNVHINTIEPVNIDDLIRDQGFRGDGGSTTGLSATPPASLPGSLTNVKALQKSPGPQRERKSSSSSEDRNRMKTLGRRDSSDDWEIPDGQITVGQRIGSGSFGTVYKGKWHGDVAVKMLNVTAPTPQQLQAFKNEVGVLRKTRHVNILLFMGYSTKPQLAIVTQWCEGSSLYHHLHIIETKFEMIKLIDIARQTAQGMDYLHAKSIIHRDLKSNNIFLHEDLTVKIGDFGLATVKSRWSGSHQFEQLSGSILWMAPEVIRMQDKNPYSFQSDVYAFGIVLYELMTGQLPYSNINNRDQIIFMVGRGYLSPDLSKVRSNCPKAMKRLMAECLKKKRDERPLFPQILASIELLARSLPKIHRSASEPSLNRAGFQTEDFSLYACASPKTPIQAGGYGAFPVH
Chain of RAC-alpha serine/threonine-protein kinase (Homo sapiens) (P31749 whole entry): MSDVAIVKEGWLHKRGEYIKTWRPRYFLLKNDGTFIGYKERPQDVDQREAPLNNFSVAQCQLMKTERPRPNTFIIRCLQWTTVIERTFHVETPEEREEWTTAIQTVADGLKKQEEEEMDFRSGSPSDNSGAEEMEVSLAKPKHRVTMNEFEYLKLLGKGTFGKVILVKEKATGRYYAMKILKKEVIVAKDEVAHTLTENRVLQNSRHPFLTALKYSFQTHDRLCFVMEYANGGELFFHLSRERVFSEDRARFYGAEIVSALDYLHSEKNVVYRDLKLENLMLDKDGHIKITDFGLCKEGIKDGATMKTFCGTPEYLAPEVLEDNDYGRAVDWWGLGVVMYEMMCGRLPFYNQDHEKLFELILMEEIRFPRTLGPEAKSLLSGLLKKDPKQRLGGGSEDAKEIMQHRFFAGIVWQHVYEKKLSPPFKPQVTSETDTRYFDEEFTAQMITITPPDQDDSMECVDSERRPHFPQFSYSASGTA
Chain of Inhibitor of nuclear factor kappa-B kinase subunit beta (Homo sapiens) (O14920 whole entry): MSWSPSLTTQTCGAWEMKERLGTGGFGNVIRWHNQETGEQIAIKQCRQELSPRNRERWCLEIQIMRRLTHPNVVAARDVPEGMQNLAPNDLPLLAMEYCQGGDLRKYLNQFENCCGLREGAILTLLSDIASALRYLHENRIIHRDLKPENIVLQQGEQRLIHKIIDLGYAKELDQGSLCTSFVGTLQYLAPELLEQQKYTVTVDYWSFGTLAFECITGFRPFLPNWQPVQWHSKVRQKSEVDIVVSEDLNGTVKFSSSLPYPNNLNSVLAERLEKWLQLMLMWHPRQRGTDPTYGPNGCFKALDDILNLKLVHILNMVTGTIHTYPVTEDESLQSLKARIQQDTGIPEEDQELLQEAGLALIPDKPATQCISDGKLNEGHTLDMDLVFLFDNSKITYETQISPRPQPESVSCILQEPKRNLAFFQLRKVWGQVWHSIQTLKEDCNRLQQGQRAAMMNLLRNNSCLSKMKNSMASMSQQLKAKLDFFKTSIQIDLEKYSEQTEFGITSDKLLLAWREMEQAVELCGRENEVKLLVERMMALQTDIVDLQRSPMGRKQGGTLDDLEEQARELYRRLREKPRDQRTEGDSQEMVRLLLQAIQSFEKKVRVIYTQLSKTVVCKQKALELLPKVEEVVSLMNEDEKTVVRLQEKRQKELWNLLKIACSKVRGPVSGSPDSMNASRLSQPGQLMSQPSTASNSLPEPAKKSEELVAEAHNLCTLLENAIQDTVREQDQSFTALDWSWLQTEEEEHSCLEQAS

## O=C(Nc1nc2cccc(C3CCC4(CC3)CCN(C(=O)[C@@H]3CC3(F)F)CC4)n2n1)C1CC1
Mus musculus [1]
  Activity: 88%

## O=C(Nc1nc2cccc(C3CCC4(CC3)CN(C(=O)[C@@H]3CC3(F)F)C4)n2n1)C1CC1
[2]
  half-life: 3.06 h
[3]
  Activity: 104%
[4]
  Activity: 85%
In vivo
  Cmax at 24 h: 2750 ng/mL
[5]
  Activity: 6.1%
Rattus norvegicus [6]
  Activity: 3.9
[7]
  Activity: 129%
[8]
  Activity: 84%
[9]
  AUC at 24 h: 19600 ng·h/mL
[10]
  Vd: 1.81 L/kg
[11]
  Activity: 104%
[12]
  Activity: 99%
[13]
  Activity: 4.99%
[14]
  Activity: 90%
[15]
  Activity: 97%
[16]
  Vd: 3.23 L/kg
[17]
  Activity: 66%
[18]
  Activity: 57%
[19]
  Activity: 80%
[20]
  Activity: 104%
Mus musculus [21]
  Activity: 1.5
Rattus norvegicus [22]
  Activity: 5.4
[23]
  Activity: 87%
[24]
  Activity: 99%
[25]
  Activity: 107%
[26]
  Activity: 88%
[27]
  Activity: 102%
